Results from patent publication US10501805B2, “Methods for determining responsiveness to MEK/ERK inhibitors” (CROWN BIOSCIENCE, INC. (TAICANG), priority 2014, dated 2019).

Key:
Experiment in all cases: CellTiter-Glo cell viability, IC50 determination
Type in all cases: cell-based
DLD-1 = details: Homo sapiens, 72 h; DLD-1 cell line; 3-day CTG assay; read-out: Absolute IC50
Method: (§1) All the cells will be cultured in the media supplemented with 10% FBS except for which are marked specially, in the temperature of 37° C., 5% CO2 and 95% humidity.
(§2) Cell viability is assayed by using CellTiter-Glo® Luminescent Cell Viability Assay Kit (Cat. No.: G7572, Promega. Store at −20° C.). To prepare the CellTiter_Glo Reagent, the CellTiter-Glo Buffer was thawed and equilibrated to room temperature prior to use. For convenience the CellTiter-Glo Buffer may be thawed and stored at room temperature for up to 48 hours prior to use. The lyophilized CellTiter-Glo Substrate is equilibrated to room temperature prior to use. The appropriate volume (100 ml) of CellTiter-Glo Buffer is transferred into the amber bottle containing CellTiter-Glo Substrate to reconstitute the lyophilized enzyme/substrate mixture, which forms the CellTiter-Glo Reagent. In certain cases, the entire liquid volume of the CellTiter-Glo Buffer bottle may be added to the CellTiter-Glo Substrate vial. Mix by gently vortexing, swirling or by inverting the contents to obtain a homogeneous solution. The CellTiter-Glo Substrate should go into solution easily in less than one minute.
(§3) The day before the experiment (Day −1), cells were dissociated during the logarithmic growth period with Cell Disassociation Buffer (Gibco 13151-014) and mixed with appropriate cell media and centrifuge at 1000 rpm for 3 minutes. The cells were re-suspended and counted using Countstar before adjusting cell concentrations to optimized density (i.e. 4.44×10^4 cells/ml) with respective culture medium listed in Table 1 for 3-day CTG assay (The cell density was optimized before actual study; cell density used in the test may vary for different cell lines). 90 μl cell suspensions were added to two 96-well plates (plates A and B) with the final cell density of 4×10^3 cells/well for 3-day CTG assay (the cell density was optimized before actual study; cell density used in the test may vary for different cell lines). The plate A and B group were incubated for overnight in humidified incubator at 37° C. with 5% CO2.
(§4) On Day 0, for plate A group, 10 μl culture medium was added to each well for T0 reading. CellTiter-Glo® Reagent was added at equal volume of cell culture medium present in each well (e.g., add 100 μl of reagent to 100 μl of medium containing cells for a 96-well plate). Contents were mixed for 2 minutes on an orbital shaker to facilitate cell lysis. The plate was allowed to incubate at room temperature for 10 minutes to stabilize luminescent signal. Backseal black sticker was added to the bottom of each plate. Luminescence was recorded using EnVision Multi Label Reader. This formed the basis for T0 value.
(§5) On Day 0, the test articles and positive controls were dissolved at the concentration indicated at Test Article Dilution map. 100× solution in PBS was prepared and then diluted with appropriate culture media (1:10) into 10×working solutions. 10 μl (10×) drug solutions were dispensed in each well (triplicate for each drug concentration) of the plate B group according to plate inoculation map. The test plates were incubated for […] in the humidified incubator at 37° with 5% CO2.
(§6) On Day 3, CellTiter-Glo® Reagent was added at equal volume of cell culture medium present in each well (e.g., add 100 μl of reagent to 100 μl of medium containing cells for a 96-well plate). Contents were mixed for 2 minutes on an orbital shaker to induce cell lysis. The plate was allowed to incubate at room temperature for 10 minutes to stabilize luminescent signal. Backseal black sticker was placed to the bottom of each plate. Luminescence was recorded using EnVision Multi Label Reader.
(§7) In order to calculate IC50s, a dose-response curve was fitted using a nonlinear regression model with a sigmoidal dose response. The formula for calculating surviving rate was shown below; Absolute IC50 is calculated where Y axis set at 50% using GraphPad Prism 5.0. Software. […]

Calu6 = details: Homo sapiens, Calu-6, 72 h; Calu6 cell line; 3-day CTG assay; read-out: Absolute IC50
Method: as §1, §2, §3, §4, §5, §6, §7

HCT-15 = details: Homo sapiens, 72 h; HCT-15 cell line; 3-day CTG assay; read-out: Absolute IC50
Method: as §1, §2, §3, §4, §5, §6, §7

Sk-Mel-5 = details: Homo sapiens, 72 h; Sk-Mel-5 cell line; 3-day CTG assay; read-out: Absolute IC50
Method: as §1, §2, §3, §4, §5, §6, §7

22RV1 = details: Homo sapiens, 72 h; 22RV1 cell line; 3-day CTG assay; read-out: Absolute IC50
Method: as §1, §2, §3, §4, §5, §6, §7

KYSE150 = details: Homo sapiens, KYSE-150, 72 h; KYSE150 cell line; 3-day CTG assay; read-out: Absolute IC50
Method: as §1, §2, §3, §4, §5, §6, §7

LS513 = details: Homo sapiens, LS-513, 72 h; LS513 cell line; 3-day CTG assay; read-out: Absolute IC50
Method: as §1, §2, §3, §4, §5, §6, §7

MDA-MB-231 = details: Homo sapiens, 72 h; MDA-MB-231 cell line; 3-day CTG assay; read-out: Absolute IC50
Method: as §1, §2, §3, §4, §5, §6, §7

A549 = details: Homo sapiens, 72 h; A549 cell line; 3-day CTG assay; read-out: Absolute IC50
Method: as §1, §2, §3, §4, §5, §6, §7

PL45 = details: 72 h; PL45 cell line; 3-day CTG assay; read-out: Absolute IC50
Method: as §1, §2, §3, §4, §5, §6, §7

KM12L4 = details: KM 12L4, 72 h; KM12L4 cell line; 3-day CTG assay; read-out: Absolute IC50
Method: as §1, §2, §3, §4, §5, §6, §7

NCI-H23 = details: Homo sapiens, 72 h; NCI-H23 cell line; 3-day CTG assay; read-out: Absolute IC50
Method: as §1, §2, §3, §4, §5, §6, §7

HCT-8 = details: Homo sapiens, 72 h; HCT-8 cell line; 3-day CTG assay; read-out: Absolute IC50
Method: as §1, §2, §3, §4, §5, §6, §7

MIAPaCa2 = details: Homo sapiens, MIA PaCa-2, 72 h; MIAPaCa2 cell line; 3-day CTG assay; read-out: Absolute IC50
Method: as §1, §2, §3, §4, §5, §6, §7

NCI-H2009 = details: Homo sapiens, 72 h; NCI-H2009 cell line; 3-day CTG assay; read-out: Absolute IC50
Method: as §1, §2, §3, §4, §5, §6, §7

Hep3B = details: Homo sapiens, 72 h; Hep3B cell line; 3-day CTG assay; read-out: Absolute IC50
Method: as §1, §2, §3, §4, §5, §6, §7

SMILES | IC50 (DLD-1) [nM] | IC50 (Calu6) [nM] | IC50 (HCT-15) [nM] | IC50 (Sk-Mel-5) [nM] | IC50 (22RV1) [nM] | IC50 (KYSE150) [nM] | IC50 (LS513) [nM] | IC50 (MDA-MB-231) [nM] | IC50 (A549) [nM] | IC50 (PL45) [nM] | IC50 (KM12L4) [nM] | IC50 (NCI-H23) [nM] | IC50 (HCT-8) [nM] | IC50 (MIAPaCa2) [nM] | IC50 (NCI-H2009) [nM] | IC50 (Hep3B) [nM]
O=C(Nc1ccc2[nH]nc(-c3ccncc3)c2c1)[C@@H]1CCN(CC(=O)N2CCN(c3ccc(-c4ncccn4)cc3)CC2)C1 [SCH772984, (R)-1-(2-oxo-2-(4-(4-(pyrimidin-2-yl)phenyl)piperazin-1-yl)ethyl)-N-(3-(pyridin-4-yl)-1H-indazol-5-yl)pyrrolidine-3-carboxamide] | 52800 | 560 | 15600 | 200 | 5010 | 1720 | 780 | 32300 | 1780 | 660 | 360 | 3690 | 1270 | 210 | 4360 | 250
CC(=O)Nc1cccc(-n2c(=O)n(C3CC3)c(=O)c3c(Nc4ccc(I)cc4F)n(C)c(=O)c(C)c32)c1 [Trametinib, N-(3-{3-Cyclopropyl-5-[(2-fluoro-4-iodophenyl)amino]-6,8-dimethyl-2,4,7-trioxo-3,4,6,7-tetrahydropyrido[4,3-d]pyrimidin-1(2H)-yl}phenyl)acetamide] | 6520 | 140 | 29300 | 10 | 202000 | 5280 | 10 | 24000 | 240 | 120 | 10 | 300 | 50 | 30 | 410 | 50
